Source: US20250326738A1, “MALT1 Modulators and Uses Thereof” (Rarefied Biosciences, Inc., priority 2022, published 2025)
pIC50: −log10 of the molar value.

Key:
[1] = target: T1, full length MALT1 (Homo sapiens, UniProt Q9UDY8); experiment: MALT1 biochemical assay (fluorogenic peptide substrate cleavage); conditions: full length MALT1, 15 nM enzyme, 30 μM peptide substrate, 30 min pre-incubation, 60 min reaction; mean if tested more than once
T1 construct: measuring enzymatic activity of full length MALT1 at varying concentrations of compound
T1 sequence (Q9UDY8 1-824): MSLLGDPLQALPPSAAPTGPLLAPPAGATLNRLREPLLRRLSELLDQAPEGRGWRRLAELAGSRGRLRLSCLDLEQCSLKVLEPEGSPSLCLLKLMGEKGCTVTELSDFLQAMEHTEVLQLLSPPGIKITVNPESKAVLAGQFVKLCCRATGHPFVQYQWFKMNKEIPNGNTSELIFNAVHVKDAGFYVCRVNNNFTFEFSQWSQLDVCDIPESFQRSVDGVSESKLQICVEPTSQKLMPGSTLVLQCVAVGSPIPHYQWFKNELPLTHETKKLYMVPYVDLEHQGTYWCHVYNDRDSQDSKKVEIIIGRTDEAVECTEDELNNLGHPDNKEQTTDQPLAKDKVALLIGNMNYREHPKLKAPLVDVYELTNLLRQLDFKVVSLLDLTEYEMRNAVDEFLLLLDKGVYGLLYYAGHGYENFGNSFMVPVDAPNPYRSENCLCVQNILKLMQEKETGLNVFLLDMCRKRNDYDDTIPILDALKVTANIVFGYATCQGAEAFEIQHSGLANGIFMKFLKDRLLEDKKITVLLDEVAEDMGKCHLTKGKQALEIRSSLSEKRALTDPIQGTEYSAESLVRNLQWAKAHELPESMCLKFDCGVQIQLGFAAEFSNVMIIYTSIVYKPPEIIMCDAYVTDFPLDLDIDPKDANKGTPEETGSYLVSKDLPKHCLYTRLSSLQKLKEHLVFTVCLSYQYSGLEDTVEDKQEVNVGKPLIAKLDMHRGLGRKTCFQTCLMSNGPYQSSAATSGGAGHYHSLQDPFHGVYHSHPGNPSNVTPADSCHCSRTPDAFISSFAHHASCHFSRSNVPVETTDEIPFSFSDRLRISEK
Experimental: Inhibitor potency was evaluated by measuring enzymatic activity of full length MALT1 at varying concentrations of compound. The enzymatic assay consists of a single substrate reaction that monitors the release of a fluorescent dye upon cleavage of the peptide substrate. […] The assay buffer consists of 50 mM Hepes, pH 7.5, 0.8 M sodium citrate, 1 mM DTT, 0.004% tween-20, and 0.005% bovine serum albumin (BSA). […] The reaction was quenched after 60 minutes with the addition of iodoacetate at a final concentration of 10 mM. Total fluorescence was measured using an Envision (PerkinElmer) with fluorescence excitation at 485 nm and emission at 520 nm.
The reaction was initiated with the addition of 10 μL of peptide substrate. […] IC50 values were calculated by fitting the concentration-response curves to a four-parameter logistic equation in GraphPad Prism.
“N/A” indicates not tested.

[2] = system: Jurkat IL-2; experiment: Jurkat IL-2 assay (IL-2 inhibition by ELISA after anti-CD3/28/2 stimulation); assay type: cell-based; conditions: Homo sapiens; Jurkat clone E6.1, IL-2 in supernatant, 30 min pre-incubation, anti-CD3/28/2 stimulation 24 hours; mean if tested more than once
Experimental: Inhibition was determined in a cell-based assay using Jurkat (ATCC, clone E6.1), an immortalized T-cell line, exposed to a dose response of compound and assessed for viability, and IL-2 inhibition by ELISA. Cells were cultured in RPMI/10% FBS (Invitrogen 11875093, Atlanta Biologicals S12450H), maintained below 3E6/mL and only used in assays while below passage 25. Compounds were stamped by ECHO onto 384w plates (PerkinElmer Culturplate, 6007680). The cells were plated in fresh media on top of compound and incubated for 30 minutes before stimulation with soluble anti-CD3/28/2 (Stemcell, 10970) for 24 hours. Supernatant was collected and assessed for IL-2 (MSD, 384w, L21SA-1). To assess viability of cells treated with compound, cells were lysed with CTG reagent (Promega, G7570), and measured by luminometer. […] IC50s calculated using 4-parameter fit in GraphPad Prism.
“N/A” indicates not tested. For a compound that was tested in more than one experiment, the result shown represents the mean value.

| Compound | pIC50 [1] | pIC50 [2] |
| --- | --- | --- |
| CN(C(=O)C1CCS(=O)(=O)CC1)[C@@H](c1ccc(Nc2cnn(C)c2C(F)(F)F)cc1)C(F)(F)F [Compound 1.1, (S)—N-methyl-N-(2,2,2-trifluoro-1-(4-((1-methyl-5-(trifluoromethyl)-1H-pyrazol-4-yl)amino)phenyl)ethyl)tetrahydro-2H-thiopyran-4-carboxamide 1,1-dioxide] | < 6.00 | < 6.00 |
| CN(C(=O)C1CCS(=O)(=O)CC1)[C@@H](c1ccc(Nc2cnn(-c3cccc4ncccc34)c2C(F)(F)F)cc1)C(F)(F)F [Compound 1.2] | 6.00 to 7.00 | 6.00 to 7.00 |
| Cc1ccccc1-n1ncc(Nc2ccc([C@H](N(C)C(=O)C3CCS(=O)(=O)CC3)C(F)(F)F)cc2)c1C(F)(F)F [Compound 1.3] | < 6.00 | 6.00 to 7.00 |
| CN(C(=O)C1CCS(=O)(=O)CC1)[C@@H](c1ccc(Nc2cnn(C)c2-c2ccccc2)cc1)C(F)(F)F [Compound 1.4] | < 6.00 | < 6.00 |
| CC(C)c1c(Nc2ccc([C@H](N(C)C(=O)C3CCS(=O)(=O)CC3)C(F)(F)F)cc2)cnn1C [Compound 1.5] | < 6.00 | < 6.00 |
| CN(C(=O)C1CCS(=O)(=O)CC1)[C@@H](c1ccc(Nc2cnn(-c3ccccc3)c2C(F)(F)F)cc1)C(F)(F)F [Compound 1.6] | 6.00 to 7.00 | 6.00 to 7.00 |
| CN(C(=O)C1CCS(=O)(=O)CC1)[C@@H](c1ccc(Nc2cnn(C3CC3)c2C(F)(F)F)cc1)C(F)(F)F [Compound 1.7] | 6.00 to 7.00 | 6.00 to 7.00 |
| CC(C)c1c(Nc2ccc([C@H](N(C)C(=O)C3CCS(=O)(=O)CC3)C(F)(F)F)cc2)cnn1-c1ccccc1 [Compound 1.8] | 6.00 to 7.00 | 6.00 to 7.00 |
| CC(C)n1ncc(Nc2ccc([C@H](N(C)C(=O)C3CCS(=O)(=O)CC3)C(F)(F)F)cc2)c1C(F)(F)F [Compound 1.9] | 6.00 to 7.00 | 6.00 to 7.00 |
| CN(C(=O)C1CCS(=O)(=O)CC1)[C@@H](c1ccc(Nc2cnn(CC(C)(C)O)c2C(F)(F)F)cc1)C(F)(F)F [Compound 1.10] | < 6.00 | < 6.00 |
| COCC(C)n1ncc(Nc2ccc([C@H](N(C)C(=O)C3CCS(=O)(=O)CC3)C(F)(F)F)cc2)c1C(F)(F)F (stereo partly drawn) [Compound 1.11] | < 6.00 | < 6.00 |
| CN(C(=O)C1CCS(=O)(=O)CC1)[C@@H](c1ccc(Nc2cnn(CC(C)(C)C)c2C(F)(F)F)cc1)C(F)(F)F [Compound 1.12] | < 6.00 | < 6.00 |
| CN(C(=O)C1CCS(=O)(=O)CC1)[C@@H](c1ccc(Nc2cnn(-c3cccnc3)c2C(F)(F)F)cc1)C(F)(F)F [Compound 1.13] | > 7.00 | > 7.00 |
| CN(C(=O)C1CCS(=O)(=O)CC1)[C@@H](c1ccc(Nc2cnn(-c3ccncc3)c2C(F)(F)F)cc1)C(F)(F)F [Compound 1.14] | 6.00 to 7.00 | > 7.00 |
| CN(C(=O)C1CCS(=O)(=O)CC1)[C@@H](c1ccc(Nc2cnn(-c3ccccn3)c2C(F)(F)F)cc1)C(F)(F)F [Compound 1.15] | > 7.00 | > 7.00 |
| CN(C(=O)C1CCS(=O)(=O)CC1)[C@@H](c1ccc(Nc2cnn(-c3ccccc3C#N)c2C(F)(F)F)cc1)C(F)(F)F [Compound 1.16] | 6.00 to 7.00 | 6.00 to 7.00 |
| CN(C(=O)C1CCS(=O)(=O)CC1)[C@@H](c1ccc(Nc2cnn(-c3cccc(C#N)c3)c2C(F)(F)F)cc1)C(F)(F)F [Compound 1.17] | > 7.00 | > 7.00 |
| CN(C(=O)C1CCS(=O)(=O)CC1)[C@@H](c1ccc(Nc2cnn(-c3ncccn3)c2C(F)(F)F)cc1)C(F)(F)F [Compound 1.18] | < 6.00 | < 6.00 |
| CN(C(=O)C1CCS(=O)(=O)CC1)[C@@H](c1ccc(Nc2cnn(-c3cnccn3)c2C(F)(F)F)cc1)C(F)(F)F [Compound 1.19] | 6.00 to 7.00 | > 7.00 |
| CC(=O)N1CC(C(=O)N(C)[C@@H](c2ccc(Nc3cnn(-c4cccnc4)c3C3CC3)cc2)C(F)(F)F)C1 [Compound 1.41] | – | 6.00 to 7.00 |
